Source: ChEMBL document CHEMBL1201862, “PubChem BioAssay data set” (2004)
Activity calls are given as the source filed them.

Columns and labels:
[1] = microbe, parasite or virus in culture; format: functional; conditions: Mycobacterium tuberculosis
INS1 = experiment: INS-1E survival protection against cytokine death – cell-based, luminescence, retest, dose response (AID 449756); format: functional; conditions: Rattus norvegicus;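 further: cell death triggered by IL-1 beta plus TNF-alpha plus IFN-gamma mixture; protective hits raise ATP signal compared with cytokine alone wells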
[2] = target: Botulinum neurotoxin type A (Clostridium botulinum (strain Hall / ATCC 3502 / NCTC 13319 / Type A), UniProt P0DPI1); experiment: High-throughput multiplex microsphere dose response for inhibitors of toxin protease, specifically Botulinum neurotoxin light chain A protease, compounds from Cherry Pick 01.; format: functional; conditions: read-out: EC50_MICROM
[3] = target: Latent membrane protein 1 (Human herpesvirus 4 (strain B95-8), UniProt P03230); experiment: LMP1 TES1 pathway selectivity over dsRED control – imaging, HEK293T, dual-color eGFP/dsRED, cherry-picks, selectivity assay for LMP1 NF-kB inhibitor project, dose response (AID 588398); format: functional, cell-based
Genome polyprotein = Genome polyprotein (dengue virus type 2, UniProt P29990); experiment: flavivirus cap methylation enzyme inhibition – biochemical, confirmation dose response, primary screen (AID 588689); format: functional
[4] = target: T1, Sentrin-specific protease 8 (Homo sapiens, UniProt Q96LD8); format: functional
T1 sequence (Q96LD8 whole entry): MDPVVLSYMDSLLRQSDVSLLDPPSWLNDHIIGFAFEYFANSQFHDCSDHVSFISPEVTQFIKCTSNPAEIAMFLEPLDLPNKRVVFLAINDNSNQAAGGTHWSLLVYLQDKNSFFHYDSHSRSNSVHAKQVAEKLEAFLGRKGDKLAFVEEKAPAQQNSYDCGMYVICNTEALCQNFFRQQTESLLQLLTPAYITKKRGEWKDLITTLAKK

[5] = target: T1, Sentrin-specific protease 8; format: functional; remark: listed apart in the source
[6] = bead-based luminescence quenchers, dual-tagged ARNT – biochemical, AlphaScreen, cherry-pick, artefact control for ARNT-TACC3 interaction inhibitor project, dose response (AID 651705); format: functional;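 further: AlphaScreen bead proximity signal that flags compounds interfering with the detection technology; potency reflects signal decrease which marks the compound as an assay artifact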
Caspase-3 = target: T2, Caspase-3 (Homo sapiens, UniProt P42574); experiment: Dose-response confirmation of uHTS inhibitor hits of Sentrin-Specific Protease 8 in a Caspase-3 Fluorescence assay.; format: functional
T2 sequence (P42574 whole entry): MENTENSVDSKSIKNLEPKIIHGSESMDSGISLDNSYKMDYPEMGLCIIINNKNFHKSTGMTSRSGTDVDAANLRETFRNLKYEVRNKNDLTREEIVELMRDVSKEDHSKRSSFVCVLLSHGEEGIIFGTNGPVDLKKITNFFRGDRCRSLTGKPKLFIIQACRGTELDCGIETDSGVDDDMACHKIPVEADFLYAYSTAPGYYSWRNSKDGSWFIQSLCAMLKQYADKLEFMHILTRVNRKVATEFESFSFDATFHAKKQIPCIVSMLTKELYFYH

[7] = target: T3, DNA repair protein RAD52 homolog (Homo sapiens, UniProt P43351); format: functional, biochemical
T3 sequence (P43351 whole entry): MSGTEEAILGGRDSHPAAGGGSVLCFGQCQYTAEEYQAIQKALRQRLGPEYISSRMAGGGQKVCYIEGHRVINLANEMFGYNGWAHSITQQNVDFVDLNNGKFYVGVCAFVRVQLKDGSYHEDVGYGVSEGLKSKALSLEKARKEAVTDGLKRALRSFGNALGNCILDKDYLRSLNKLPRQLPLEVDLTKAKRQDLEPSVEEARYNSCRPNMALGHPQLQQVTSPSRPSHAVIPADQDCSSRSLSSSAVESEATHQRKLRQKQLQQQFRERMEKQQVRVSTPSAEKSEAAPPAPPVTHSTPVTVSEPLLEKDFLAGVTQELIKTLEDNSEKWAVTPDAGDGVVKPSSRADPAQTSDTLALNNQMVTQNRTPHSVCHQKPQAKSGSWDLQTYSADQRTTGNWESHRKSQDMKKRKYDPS

[8] = viability loss in THP-1 monocytes – THP-1 cells, cytotoxicity control for Vif-APOBEC3G degradation inhibitor project, dose response (AID 1117359); format: functional; conditions: THP-1
[9] = target: Glutathione-S-transferase (Schistosoma japonicum, UniProt Q26513); experiment: GST-antibody interaction or FRET quenching – biochemical, TR-FRET, artefact control for Vif-APOBEC3G degradation inhibitor project, dose response (AID 1117362); format: functional
[10] = target: T4, High affinity choline transporter 1 (Homo sapiens, UniProt Q9GZV3); experiment: human choline transporter potentiators, potency – cell-based, 10-point CRC, membrane potential dye, dose response (AID 602376); format: functional
T4 sequence (Q9GZV3 whole entry): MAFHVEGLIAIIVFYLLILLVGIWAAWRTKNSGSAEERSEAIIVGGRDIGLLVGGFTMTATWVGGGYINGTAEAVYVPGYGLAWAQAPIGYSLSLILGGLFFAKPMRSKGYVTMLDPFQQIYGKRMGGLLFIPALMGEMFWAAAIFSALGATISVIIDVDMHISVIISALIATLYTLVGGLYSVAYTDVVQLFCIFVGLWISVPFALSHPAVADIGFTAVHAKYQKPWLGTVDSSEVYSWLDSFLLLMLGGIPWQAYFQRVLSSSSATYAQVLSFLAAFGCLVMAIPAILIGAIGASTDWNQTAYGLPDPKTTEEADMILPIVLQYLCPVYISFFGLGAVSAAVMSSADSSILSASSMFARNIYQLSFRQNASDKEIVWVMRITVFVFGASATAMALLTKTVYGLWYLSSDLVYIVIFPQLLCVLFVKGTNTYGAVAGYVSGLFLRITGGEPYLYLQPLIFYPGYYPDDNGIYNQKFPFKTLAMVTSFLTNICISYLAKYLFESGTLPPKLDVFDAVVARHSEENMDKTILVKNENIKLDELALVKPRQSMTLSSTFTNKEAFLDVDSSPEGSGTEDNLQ

[11] = target: Cyclin-dependent kinase 2 (Homo sapiens, UniProt P24941); format: functional;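 further: CDK2 measured as one member of a broad kinome profiling panel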
[12] = target: Serine/threonine-protein kinase pim-1 (Homo sapiens, UniProt P11309); format: functional
[13] = target: Cell division cycle 7-related protein kinase (Homo sapiens, UniProt O00311); format: functional;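 further: value obtained from a kinome-wide kinase panel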
[14] = target: Homeodomain-interacting protein kinase 2 (Homo sapiens, UniProt Q9H2X6); format: functional;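 further: measured within a kinome-wide kinase profiling panel, HIPK2 being one panel member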
[15] = target: Interleukin-1 receptor-associated kinase 4 (Homo sapiens, UniProt Q9NWZ3); format: functional
[16] = target: Glycogen synthase kinase-3 beta (Homo sapiens, UniProt P49841); format: functional;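 further: value comes from a broad kinome profiling panel, with GSK3B as the panel member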
[17] = target: cAMP-dependent protein kinase catalytic subunit alpha (Homo sapiens, UniProt P17612); format: functional
[18] = target: Dual specificity protein kinase CLK4 (Homo sapiens, UniProt Q9HAZ1); format: functional
[19] = target: Mitogen-activated protein kinase kinase kinase kinase 4 (Homo sapiens, UniProt O95819); format: functional
Chain of Mitogen-activated protein kinase kinase kinase kinase 4 (O95819 whole entry): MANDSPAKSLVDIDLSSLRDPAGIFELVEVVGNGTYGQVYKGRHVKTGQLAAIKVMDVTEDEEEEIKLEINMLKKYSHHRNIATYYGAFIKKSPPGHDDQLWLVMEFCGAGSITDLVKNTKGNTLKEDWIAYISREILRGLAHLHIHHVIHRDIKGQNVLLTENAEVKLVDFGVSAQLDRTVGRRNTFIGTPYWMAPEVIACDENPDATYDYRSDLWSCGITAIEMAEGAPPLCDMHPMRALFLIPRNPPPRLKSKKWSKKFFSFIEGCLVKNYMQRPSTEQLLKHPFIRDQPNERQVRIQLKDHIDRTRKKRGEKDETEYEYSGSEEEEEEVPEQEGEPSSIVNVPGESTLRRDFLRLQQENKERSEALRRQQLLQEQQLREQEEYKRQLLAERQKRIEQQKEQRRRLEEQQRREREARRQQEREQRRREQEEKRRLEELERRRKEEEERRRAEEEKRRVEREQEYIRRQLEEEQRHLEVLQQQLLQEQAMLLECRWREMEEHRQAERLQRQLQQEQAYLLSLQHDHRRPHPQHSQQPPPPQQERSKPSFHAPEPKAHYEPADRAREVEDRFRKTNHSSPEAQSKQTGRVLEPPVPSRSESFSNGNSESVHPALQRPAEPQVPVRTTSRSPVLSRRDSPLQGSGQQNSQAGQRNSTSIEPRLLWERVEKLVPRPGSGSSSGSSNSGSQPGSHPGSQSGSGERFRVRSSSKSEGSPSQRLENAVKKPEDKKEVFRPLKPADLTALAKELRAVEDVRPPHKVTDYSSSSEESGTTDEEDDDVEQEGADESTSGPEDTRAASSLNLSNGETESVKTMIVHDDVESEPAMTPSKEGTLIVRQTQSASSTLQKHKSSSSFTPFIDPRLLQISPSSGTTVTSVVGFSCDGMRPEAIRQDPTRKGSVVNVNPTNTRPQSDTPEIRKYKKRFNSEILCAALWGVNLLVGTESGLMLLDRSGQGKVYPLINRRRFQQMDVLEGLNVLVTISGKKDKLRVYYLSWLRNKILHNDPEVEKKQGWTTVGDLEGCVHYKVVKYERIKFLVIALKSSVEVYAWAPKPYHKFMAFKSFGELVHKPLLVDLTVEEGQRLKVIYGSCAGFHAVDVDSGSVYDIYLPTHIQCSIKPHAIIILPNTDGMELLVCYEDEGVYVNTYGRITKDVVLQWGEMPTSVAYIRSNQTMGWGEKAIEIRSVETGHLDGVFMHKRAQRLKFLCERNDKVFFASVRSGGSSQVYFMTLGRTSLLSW

Chain of Interleukin-1 receptor-associated kinase 4 (Q9NWZ3 whole entry): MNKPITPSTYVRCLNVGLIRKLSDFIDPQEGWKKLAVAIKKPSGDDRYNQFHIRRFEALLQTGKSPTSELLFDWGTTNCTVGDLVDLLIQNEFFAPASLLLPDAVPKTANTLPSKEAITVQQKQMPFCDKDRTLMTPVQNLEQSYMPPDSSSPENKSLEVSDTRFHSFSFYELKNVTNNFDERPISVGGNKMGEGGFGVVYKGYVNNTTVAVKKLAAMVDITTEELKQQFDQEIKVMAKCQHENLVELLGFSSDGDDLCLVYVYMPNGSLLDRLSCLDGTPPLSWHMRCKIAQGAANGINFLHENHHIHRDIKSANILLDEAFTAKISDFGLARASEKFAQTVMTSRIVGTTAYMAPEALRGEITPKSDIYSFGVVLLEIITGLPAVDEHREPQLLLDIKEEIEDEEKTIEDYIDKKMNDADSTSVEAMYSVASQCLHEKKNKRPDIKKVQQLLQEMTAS
Chain of Dual specificity protein kinase CLK4 (Q9HAZ1 whole entry): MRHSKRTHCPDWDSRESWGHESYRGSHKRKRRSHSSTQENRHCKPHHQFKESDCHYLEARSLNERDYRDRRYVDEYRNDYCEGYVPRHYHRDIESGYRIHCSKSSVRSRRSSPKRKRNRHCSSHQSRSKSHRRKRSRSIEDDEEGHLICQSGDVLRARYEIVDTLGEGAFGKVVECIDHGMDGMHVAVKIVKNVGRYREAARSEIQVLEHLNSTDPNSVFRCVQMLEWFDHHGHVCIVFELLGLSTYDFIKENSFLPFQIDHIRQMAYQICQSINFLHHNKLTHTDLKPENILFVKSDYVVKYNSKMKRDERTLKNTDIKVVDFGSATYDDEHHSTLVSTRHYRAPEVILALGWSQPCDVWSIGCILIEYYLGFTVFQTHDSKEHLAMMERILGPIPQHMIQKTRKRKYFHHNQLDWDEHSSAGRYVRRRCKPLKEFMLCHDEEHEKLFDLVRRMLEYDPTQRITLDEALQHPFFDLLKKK
Chain of Homeodomain-interacting protein kinase 2 (Q9H2X6 whole entry): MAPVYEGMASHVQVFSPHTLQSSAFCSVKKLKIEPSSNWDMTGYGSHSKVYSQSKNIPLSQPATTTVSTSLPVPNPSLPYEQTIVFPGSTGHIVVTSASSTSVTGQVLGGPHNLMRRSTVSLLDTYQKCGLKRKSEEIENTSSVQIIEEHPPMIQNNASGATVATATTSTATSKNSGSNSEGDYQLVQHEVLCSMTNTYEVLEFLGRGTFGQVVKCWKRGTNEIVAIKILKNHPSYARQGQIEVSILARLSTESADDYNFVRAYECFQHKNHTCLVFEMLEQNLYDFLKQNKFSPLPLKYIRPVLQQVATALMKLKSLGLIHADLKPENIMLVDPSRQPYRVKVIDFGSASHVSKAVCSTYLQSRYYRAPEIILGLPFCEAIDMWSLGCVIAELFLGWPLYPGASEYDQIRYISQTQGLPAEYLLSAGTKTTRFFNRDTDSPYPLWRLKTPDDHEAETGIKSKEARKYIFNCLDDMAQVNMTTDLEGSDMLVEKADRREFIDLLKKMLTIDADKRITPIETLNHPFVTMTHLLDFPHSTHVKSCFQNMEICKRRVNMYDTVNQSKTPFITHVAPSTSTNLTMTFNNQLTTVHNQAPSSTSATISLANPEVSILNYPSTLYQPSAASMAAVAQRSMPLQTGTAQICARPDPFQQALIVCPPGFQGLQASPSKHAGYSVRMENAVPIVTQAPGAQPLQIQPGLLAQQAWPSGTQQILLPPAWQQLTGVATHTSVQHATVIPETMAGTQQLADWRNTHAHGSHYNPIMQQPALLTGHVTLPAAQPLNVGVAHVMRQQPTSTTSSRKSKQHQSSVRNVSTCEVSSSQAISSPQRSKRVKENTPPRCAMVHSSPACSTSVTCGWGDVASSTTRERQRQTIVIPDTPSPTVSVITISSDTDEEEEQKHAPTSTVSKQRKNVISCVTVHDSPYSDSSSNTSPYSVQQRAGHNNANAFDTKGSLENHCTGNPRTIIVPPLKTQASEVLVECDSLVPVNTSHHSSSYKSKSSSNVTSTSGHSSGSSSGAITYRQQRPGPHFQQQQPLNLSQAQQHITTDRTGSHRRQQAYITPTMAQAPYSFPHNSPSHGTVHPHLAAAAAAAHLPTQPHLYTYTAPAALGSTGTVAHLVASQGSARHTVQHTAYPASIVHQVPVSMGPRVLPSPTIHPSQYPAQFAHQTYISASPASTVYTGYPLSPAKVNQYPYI
Chain of Glycogen synthase kinase-3 beta (P49841 whole entry): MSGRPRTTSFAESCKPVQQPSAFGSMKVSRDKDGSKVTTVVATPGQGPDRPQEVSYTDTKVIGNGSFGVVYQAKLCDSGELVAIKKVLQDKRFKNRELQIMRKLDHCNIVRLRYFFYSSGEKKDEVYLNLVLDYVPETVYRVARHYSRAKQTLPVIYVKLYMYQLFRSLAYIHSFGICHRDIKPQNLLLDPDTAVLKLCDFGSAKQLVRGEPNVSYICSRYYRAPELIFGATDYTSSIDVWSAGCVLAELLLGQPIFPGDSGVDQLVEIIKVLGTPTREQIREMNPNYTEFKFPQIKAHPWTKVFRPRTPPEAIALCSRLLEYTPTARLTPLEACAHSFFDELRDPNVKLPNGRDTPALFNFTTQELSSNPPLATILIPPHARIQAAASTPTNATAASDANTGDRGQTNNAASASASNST
Chain of Latent membrane protein 1 (P03230 whole entry): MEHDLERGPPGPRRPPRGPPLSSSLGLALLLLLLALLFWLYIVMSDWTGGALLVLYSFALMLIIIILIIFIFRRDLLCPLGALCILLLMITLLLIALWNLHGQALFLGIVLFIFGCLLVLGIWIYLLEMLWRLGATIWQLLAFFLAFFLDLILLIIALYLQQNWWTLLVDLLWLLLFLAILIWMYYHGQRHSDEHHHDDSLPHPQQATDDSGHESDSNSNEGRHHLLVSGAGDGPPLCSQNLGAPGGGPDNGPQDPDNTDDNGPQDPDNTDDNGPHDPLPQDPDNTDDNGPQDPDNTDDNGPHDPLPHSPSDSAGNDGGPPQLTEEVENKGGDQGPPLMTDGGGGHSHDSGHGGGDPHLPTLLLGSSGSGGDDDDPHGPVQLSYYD
Chain of Botulinum neurotoxin type A (P0DPI1 2-448 limits assumed): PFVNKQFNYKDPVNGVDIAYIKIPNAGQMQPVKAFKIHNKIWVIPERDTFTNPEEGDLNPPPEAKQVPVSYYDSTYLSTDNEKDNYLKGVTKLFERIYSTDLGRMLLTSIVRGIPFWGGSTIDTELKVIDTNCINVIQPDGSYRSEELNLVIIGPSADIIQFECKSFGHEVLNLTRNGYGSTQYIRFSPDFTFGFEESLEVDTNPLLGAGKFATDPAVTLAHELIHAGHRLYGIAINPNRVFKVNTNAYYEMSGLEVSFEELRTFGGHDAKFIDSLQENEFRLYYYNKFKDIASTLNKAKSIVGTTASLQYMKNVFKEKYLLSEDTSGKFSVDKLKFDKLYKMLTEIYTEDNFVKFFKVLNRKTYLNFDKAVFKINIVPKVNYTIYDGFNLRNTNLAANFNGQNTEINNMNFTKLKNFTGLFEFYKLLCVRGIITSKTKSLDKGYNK
Chain of Glutathione-S-transferase (Q26513 whole entry): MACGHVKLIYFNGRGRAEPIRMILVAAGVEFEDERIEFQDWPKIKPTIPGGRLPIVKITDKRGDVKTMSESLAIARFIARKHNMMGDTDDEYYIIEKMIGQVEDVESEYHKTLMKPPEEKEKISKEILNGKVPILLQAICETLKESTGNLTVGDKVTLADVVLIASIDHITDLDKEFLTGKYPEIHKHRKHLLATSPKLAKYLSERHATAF

Which results are given for O=c1c(Cl)c2oc3ccccc3nc-2c2ccccc12?
CC50 [1]: > 40 µM (active); AC50 (INS1): 2.61 µM (active); EC50 [2]: 12.4 µM (active)

Which AC50 [3] does the source give for COc1cc(NCCCCCCN)c2ncccc2c1OC here?
Its AC50 is 34.4 µM (active).

What about the IC50 (Genome polyprotein) of the same molecule?
The IC50 was > 100 µM (active).

What about the IC50 [4] of the same molecule?
The IC50 was 0.208 µM (active).

What about the IC50 [5] of the same molecule?
The IC50 was 0.434 µM (active).

What about the AC50 [6] of the same molecule?
The AC50 was 132 µM (active).

And the IC50 (Caspase-3)?
Its IC50 is 4.23 µM (active).

And the AC50 [7]?
Its AC50 is 0.87 µM (active).

And the CC50 [8]?
Its CC50 is > 40 µM (active).

What about the IC50 [9] of the same molecule?
Its IC50 is 2.53 µM (active).

For CCCCCCCCC1=NCCc2c1[nH]c1ccccc21, which EC50 [10] is on record?
Its EC50 is 13.7 µM (active).

With Cn1cc(-c2ccccc2)c2nc(-c3ccncc3)cc(=O)n21 as the molecule, how does the Ki [11] read?
The Ki was > 7.94 µM (inactive).

What about the Ki [12] of the same molecule?
Its Ki is 2.51 µM (active).

What about the Ki [13] of the same molecule?
Its Ki is 0.0158 µM (active).

What about the Ki [14] of the same molecule?
Its Ki is 0.1 µM (active).

And the Ki [15]?
Its Ki is > 10 µM (inactive).

And the Ki [16]?
The Ki was 0.126 µM (active).

And the Ki [17]?
Its Ki is 5.01 µM (active).

What about the Ki [18] of the same molecule?
The Ki was 0.0316 µM (active).

And the Ki [19]?
Its Ki is 1.26 µM (active).
